Measurements as given in patent US12396995B2, “Substituted 4-aminoisoindoline-1,3-dione compounds and second active agents for combined use” (Celgene Corporation, priority 2019, dated 2025).

Tests used:
[1] = system: WSU-DLCL2 DLBCL xenograft tumors; experiment: WSU-DLCL2 (DLBCL) xenograft model, Compound 1 alone and with 5-azacytidine; format: in vivo, female SCID mice
Description: Anti-tumor activity of Compound 1 alone and in combination with 5-azacytidine was studies in WSU-DLCL2 (DLBCL) xenograft model. Compound 1 (1 mg/kg) was administered once daily for 5 consecutive days followed by 2 days off (5 D on/2 D off) and 5-azacytidine (1 mg/kg) was administered once daily (QD). Compound 1 (1 mg/kg, 5 D on/2 D off) and 5-azacytidine (1 mg/kg, QD) inhibited WSU-DLCL2 DLBCL tumor growth.
Methods: Xenograft study was conducted with female SCID mice bearing WSU-DLCL2 DLBCL xenograft tumors. Female SCID mice were inoculated subcutaneously with WSU-DLCL2 cells in the flank region above the right hind leg. Following inoculation of animals, the tumors were allowed to grow to approximately 200 mm^3 prior to randomization. On day 14 following tumor cell inoculation, the mice bearing WSU-DLCL2 tumors ranging between 150 and 250 mm^3 were pooled together and randomized into various treatment groups. Compound 1 was formulated in 0.5% Methyl Cellulose, 0.25% Tween 80 and 50 mM Citrate pH 3 in water. 5-Azacytidine was formulated in 0.9% saline. Compound 1 (1 mg/kg) was orally administered with three cycles of once daily for 5 consecutive days followed by 2 days off starting from day 14 after tumor cell inoculation. […] Tumors were measured twice a week using calipers and tumor volumes were calculated using the formula of W^2×L/2. […]

[2] = system: primary CLL cells (CD5+CD19+ tumor cells); experiment: Ex vivo apoptosis of B-cell CLL patient cells, Compound 1 with venetoclax (flow cytometry, Caspase 3); format: cell-based, human; details: 144 hrs
Description: CLL is characterized by accumulation of clonal CD5^+CD19^+ lymphocytes resistant to apoptosis. Venetoclax blocks the anti-apoptotic B-cell lymphoma-2 (Bcl-2) protein, leading to programmed cell death of CLL cells and is currently being tested in the clinic with different combinations for relapsed refractory patients. The effect of Compound 1 in combination with venetoclax on the proliferation and survival of CLL B cells was assessed utilizing an ex vivo model where primary CLL cells from patient-derived blood were stimulated to proliferate with 10% fetal bovine serum (FBS), 5 ng/mL recombinant human interleukine-4 (rh IL-4), 10 ng/mL recombinant human interleukine-10 (rh IL-10) and co-cultured with fibroblast expressing surface CD154 (CD40L) in a 96 well plate format.
Peripheral blood mononuclear cells (PBMCs) from CLL patients (Table 6) containing 52%-86% of CD5^+CD19^+ tumor cells were cultured at a density of 0.06-0.1×10^6 cells/well on a monolayer of CD154-expressing fibroblasts at a density of 0.09×10^6 cells/well in 96-well plates in RPMI 1640 medium supplemented with 10% FBS, 5 ng/mL rh IL-4 and 10 ng/mL rh IL-10 and were simultaneously treated with vehicle control (0.1% DMSO) or increasing concentrations of Compound 1 ranging from 0.0001 to 1 μM and venetoclax at concentrations ranging from 0.001 to 10 μM across all the different concentrations of Compound 1. After 144 hrs of treatment with both the agents, flow cytometric analysis was used to determine the number of tumor cells that were viable or apoptotic.
After 6 days of treatment, the tumor cell count was assessed by staining the patient PBMCs in each condition with tumor cell surface markers CD5 & CD19 along with Live/Dead fixable dye to exclude the dead cells and followed by intracellular staining for Caspase 3 antibody to identify the apoptotic cells and was measured by flow cytometry (Attune NxT, Thermo Fisher). The live tumor cell count for each condition was calculated by normalizing to the precision count beads added to each sample.
For apoptosis analysis, the percentage of apoptosis combining both “early” (Caspase 3 positive and Live-Dead fixable dye negative) and “late” apoptosis (Caspase 3 and Live-Dead fixable dye positive) cell gates subtracting the baseline DMSO value was graphed using GraphPad Prism 8.0.0.0. The Ymax (maximal percentage of apoptosis achieved) values from apoptosis curves were calculated by performing a nonlinear regression curve fitting using log(agonist) vs. normalized response—Variable slope analysis and identifying the maximum value on GraphPad Prism 8.0.0 (Table 7).

[3] = DMSO + Cpd1 DRC (no venetoclax)

Compound: O=C1CC[C@H](N2C(=O)c3cccc(NCc4ccc(CN5CC(N6CCOCC6)C5)cc4F)c3C2=O)C(=O)N1 [Compound 1, (S)-2-(2,6-dioxopiperidin-3-yl)-4-((2-fluoro-4-((3-morpholinoazetidin-1-yl)methyl)benzyl)amino)isoindoline-1,3-dione]
- combination antitumor activity (fractional product method) ([1]; Compound 1 1 mg/kg and 5-azacytidine 1 mg/kg): synergistic
- tumor volume reduction compared to vehicle control ([1]; Compound 1 1 mg/kg in combination with 5-azacytidine 1 mg/kg): 74%
- Ymax of Pt 11 (%), maximal apoptosis [2, 3]: 12.42%
- Ymax of Pt 12 (%), maximal apoptosis [2, 3]: 14.64%
- Ymax of Pt 13 (%), maximal apoptosis [2, 3]: 27.00%
- Ymax of Pt 14 (%), maximal apoptosis [2, 3]: 13.32%
- Ymax of Pt 11 (%), maximal apoptosis ([2]; venetoclax 0.001 uM + Cpd1 DRC): 17.79%
- Ymax of Pt 12 (%), maximal apoptosis ([2]; venetoclax 0.001 uM + Cpd1 DRC): 24.85%
- Ymax of Pt 13 (%), maximal apoptosis ([2]; venetoclax 0.001 uM + Cpd1 DRC): 33.09%
- Ymax of Pt 14 (%), maximal apoptosis ([2]; venetoclax 0.001 uM + Cpd1 DRC): 17.39%
- Ymax of Pt 11 (%), maximal apoptosis ([2]; venetoclax 0.01 uM + Cpd1 DRC): 38.49%
- Ymax of Pt 12 (%), maximal apoptosis ([2]; venetoclax 0.01 uM + Cpd1 DRC): 34.24%
- Ymax of Pt 13 (%), maximal apoptosis ([2]; venetoclax 0.01 uM + Cpd1 DRC): 49.03%
- Ymax of Pt 14 (%), maximal apoptosis ([2]; venetoclax 0.01 uM + Cpd1 DRC): 27.33%
- Ymax of Pt 11 (%), maximal apoptosis ([2]; venetoclax 0.1 uM + Cpd1 DRC): 58.37%
- Ymax of Pt 12 (%), maximal apoptosis ([2]; venetoclax 0.1 uM + Cpd1 DRC): 45.34%
- Ymax of Pt 13 (%), maximal apoptosis ([2]; venetoclax 0.1 uM + Cpd1 DRC): 52.16%
- Ymax of Pt 14 (%), maximal apoptosis ([2]; venetoclax 0.1 uM + Cpd1 DRC): 31.44%
- Ymax of Pt 11 (%), maximal apoptosis ([2]; venetoclax 1 uM + Cpd1 DRC): 66.55%
- Ymax of Pt 12 (%), maximal apoptosis ([2]; venetoclax 1 uM + Cpd1 DRC): 48.71%
- Ymax of Pt 13 (%), maximal apoptosis ([2]; venetoclax 1 uM + Cpd1 DRC): 55.23%
- Ymax of Pt 14 (%), maximal apoptosis ([2]; venetoclax 1 uM + Cpd1 DRC): 40.57%
- Ymax of Pt 11 (%), maximal apoptosis ([2]; venetoclax 10 uM + Cpd1 DRC): 72.34%
- Ymax of Pt 12 (%), maximal apoptosis ([2]; venetoclax 10 uM + Cpd1 DRC): 54.25%
- Ymax of Pt 13 (%), maximal apoptosis ([2]; venetoclax 10 uM + Cpd1 DRC): 60.52%
- Ymax of Pt 14 (%), maximal apoptosis ([2]; venetoclax 10 uM + Cpd1 DRC): 45.98%
